From article PMC8626637, “Successful Prediction of Human Fetal Exposure to P-Glycoprotein Substrate Drugs Using the Proteomics-Informed Relative Expression Factor Approach and PBPK Modeling and Simulation” (Drug Metabolism and Disposition, 2021)
Converted amounts (≈) assume the structure as drawn. “And” between values parts separate entries of the source, which are not always exact repeats. Identical values can stand only once. Like-named read-outs stand apart in the source and are kept apart here.

Tests used:
[1] = test system: 11 β-hydroxysteroid dehydrogenase-2; design: method as in Blanford and Murphy, 1977; Murphy et al., 2007; settings: ref Blanford and Murphy, 1977, Murphy et al., 2007; cited from earlier work
[2] = ref DrugBank database; cited from earlier work
[3] = Estimation of in vivo transplacental passive diffusion clearance by scaling midazolam CLint,PD,placenta with Papp ratio; design: species or system human; settings: at term, scaled from midazolam by Papp ratio
[4] = Observed or PopPK-model (published) maternal and fetal UV plasma pharmacokinetics in pregnant women; settings: coadministered with RTV
P-gp [5] = target: T1, P-gp (Homo sapiens, UniProt P08183); assay: in vitro; settings: MDCK-MDR1, pH 7.4
placental P-gp = assay: m-f PBPK prediction of maternal-fetal pharmacokinetics at gestational week 20 (GW20); design: species or system human
Text: GW20 was chosen since this is the earliest gestational age at which all the fetal physiologic parameters (e.g., organ volumes, partition coefficients, blood flows) are available.

P-gp [6] = target: T1, P-gp; settings: for ERP-gp ERTRQ(−) − ERTRQ(+): P-gp-mediated efflux ratio
MDCKII or Caco-2 cells = settings: determined in MDCKII or Caco-2 cells; ref Zhang and Unadkat, 2017; cited from earlier work
[7] = in vivo, at term; ref Zhang and Unadkat, 2017; cited from earlier work

T1 sequence (P08183 whole entry): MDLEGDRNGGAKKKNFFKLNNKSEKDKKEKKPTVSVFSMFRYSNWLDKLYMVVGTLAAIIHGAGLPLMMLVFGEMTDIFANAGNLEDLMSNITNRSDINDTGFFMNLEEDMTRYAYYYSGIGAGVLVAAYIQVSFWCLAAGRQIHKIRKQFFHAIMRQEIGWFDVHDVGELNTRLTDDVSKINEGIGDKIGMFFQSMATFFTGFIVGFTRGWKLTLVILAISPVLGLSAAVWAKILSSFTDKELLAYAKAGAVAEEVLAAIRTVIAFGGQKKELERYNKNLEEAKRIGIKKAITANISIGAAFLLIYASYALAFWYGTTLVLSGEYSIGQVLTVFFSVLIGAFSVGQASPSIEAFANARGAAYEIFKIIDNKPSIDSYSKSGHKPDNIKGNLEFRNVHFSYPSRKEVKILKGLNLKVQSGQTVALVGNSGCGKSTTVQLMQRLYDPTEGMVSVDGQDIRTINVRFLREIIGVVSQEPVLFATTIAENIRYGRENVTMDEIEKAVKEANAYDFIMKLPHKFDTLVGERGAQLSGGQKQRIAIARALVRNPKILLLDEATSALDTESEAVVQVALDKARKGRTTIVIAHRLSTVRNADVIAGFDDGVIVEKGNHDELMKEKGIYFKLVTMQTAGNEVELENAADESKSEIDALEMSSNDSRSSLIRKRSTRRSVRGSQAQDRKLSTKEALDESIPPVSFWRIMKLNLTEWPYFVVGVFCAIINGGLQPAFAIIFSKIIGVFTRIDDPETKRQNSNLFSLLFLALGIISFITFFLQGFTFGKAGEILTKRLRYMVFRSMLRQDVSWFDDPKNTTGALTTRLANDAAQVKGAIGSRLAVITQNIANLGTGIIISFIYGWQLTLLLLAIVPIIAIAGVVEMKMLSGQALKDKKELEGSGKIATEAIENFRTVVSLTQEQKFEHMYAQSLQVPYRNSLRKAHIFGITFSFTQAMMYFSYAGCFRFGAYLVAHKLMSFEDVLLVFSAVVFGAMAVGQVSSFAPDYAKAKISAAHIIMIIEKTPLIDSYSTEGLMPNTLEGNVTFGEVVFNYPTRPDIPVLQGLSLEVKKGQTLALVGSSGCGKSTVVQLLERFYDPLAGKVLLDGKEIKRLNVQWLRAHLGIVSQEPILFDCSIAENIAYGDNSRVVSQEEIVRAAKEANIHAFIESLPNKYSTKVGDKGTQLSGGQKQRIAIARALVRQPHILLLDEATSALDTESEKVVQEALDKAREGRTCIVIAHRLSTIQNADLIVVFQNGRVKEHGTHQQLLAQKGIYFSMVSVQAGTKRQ

SMILES: C[C@H]1C[C@H]2[C@@H]3CCC4=CC(=O)C=C[C@]4(C)[C@@]3(F)[C@@H](O)C[C@]2(C)[C@@]1(O)C(=O)CO [BET, betamethasone]
- metabolized over 6 hours in vitro in placental microsomes [1]: 10%–15%

SMILES: C[C@@H]1C[C@H]2[C@@H]3CCC4=CC(=O)C=C[C@]4(C)[C@@]3(F)[C@@H](O)C[C@]2(C)[C@@]1(O)C(=O)CO [DEX, dexamethasone]
- metabolized over 6 hours in vitro in placental microsomes [1]: 10%–15%

SMILES: CC(C)CN(C[C@@H](O)[C@H](Cc1ccccc1)NC(=O)O[C@H]1CO[C@H]2OCC[C@H]21)S(=O)(=O)c1ccc(N)cc1 [DRV, darunavir]
- solubility [2]: 16 µM (≈ 8.76 µg/mL)

SMILES: Cc1cccc(C)c1OCC(=O)N[C@@H](Cc1ccccc1)[C@@H](O)C[C@H](Cc1ccccc1)NC(=O)[C@H](C(C)C)N1CCCNC1=O [LPV, lopinavir]
- CLint,PD,placenta [3]: 127 L/h
- observed increase in maternal clearance in pregnancy [4]: 1.4 fold
- Papp (P-gp [5]): 12.5 ×10⁻⁶ cm/s
- CLint,P-gp,placenta (placental P-gp; GW20, adjusted for total placental P-gp abundance): 617 L/h
- CLint,PD,placenta (placental P-gp; GW20, from term value adjusted for placental surface area): 49.5 L/h
- CLint,P-gp,placenta at GW20, lower than the corresponding value at GW38 (placental P-gp; GW20 versus GW38): 40%
- fetal Kp,uu at GW20 as percent of that at GW38 (placental P-gp; m-f PBPK predicted): 64%
- fetal UV plasma AUC0-12 at GW20 as percent of that at GW38 (placental P-gp; m-f PBPK predicted): 38%
- fetal plasma Cmax at GW20 as percent of that at GW38 (placental P-gp; m-f PBPK predicted): 41%
- ERP-gp ERTRQ(−) − ERTRQ(+) (P-gp [6]; Mean ± S.D. of 4 experiments): 83.1 ± 10.1 and 83.1 ± 10.05
- ERP-gp ERTRQ(−) − ERTRQ(+) (P-gp [6]; individual experiments (Exp no. 1-4)): 94.35 and 88.78 and 73.99 and 75.27
- ERTRQ(−) (P-gp [6]; efflux ratio without tariquidar, individual experiments (Exp no. 1-4, each in triplicate), 2 µM DEX, BET, DRV, 1 µM LPV): 95.37 and 90.07 and 75.63 and 76.57
- solubility [2]: 3 µM (≈ 1.89 µg/mL)

SMILES: Cc1ncc2n1-c1ccc(Cl)cc1C(c1ccccc1F)=NC2 [MDZ, midazolam]
- Papp (MDCKII or Caco-2 cells): 49 ×10⁻⁶ cm/s
- CLint,PD,placenta [7]: 500 L/h

SMILES: C=C[C@H]1C[N@@]2CC[C@H]1C[C@@H]2[C@@H](O)c1ccnc2ccc(OC)cc12 [QND, Quinidine]
- efflux ratio at 3 µM (P-gp [5]): 11.1 ± 2.5
